In ChEMBL document CHEMBL3217731 (Medchemcomm, 2012):

What was measured:
Parameters in all cases: dose 2.5 mg/kg, route intraperitoneal
[1] = tested on: Serum; assay: Drug uptake in C57BL/6J mouse serum at 2.5 mg/kg, ip measured at 10 to 60 mins by CE-UV analysis; assay type: ADME, organism-based; conditions: in vivo
[2] = tested on: Brain; assay: Drug uptake in C57BL/6J mouse brain at 2.5 mg/kg, ip measured at 4 hrs by CE-UV analysis; assay type: ADME, organism-based; conditions: in vivo
[3] = Drug uptake in C57BL/6J mouse eye at 2.5 mg/kg, ip measured at 10 hrs by CE-UV analysis; assay type: ADME, organism-based; conditions: in vivo
[4] = tested on: Serum; assay: AUC in C57BL/6J mouse serum at 2.5 mg/kg, ip by CE-UV analysis; assay type: ADME, organism-based, Plasma; conditions: in vivo
[5] = tested on: Serum; assay: Half life in C57BL/6J mouse serum at 2.5 mg/kg, ip; assay type: ADME, organism-based; conditions: in vivo
[6] = AUC in C57BL/6J mouse CSF at 2.5 mg/kg, ip by CE-UV analysis; assay type: ADME, organism-based
[7] = Drug uptake in C57BL/6J mouse CSF at 2.5 mg/kg, ip measured at 4 to 10 hrs by CE-UV analysis; assay type: ADME, organism-based, Cerebrospinal fluid; conditions: in vivo

For CN1C(=O)N[C@H]2[C@@H]3NC(=O)c4ccc(Br)n4[C@@H]3C[C@]21O [AGELASTATIN A], the Drug uptake [1] was “Active”, the Drug uptake [2] was “Active” and the Drug uptake [3] was “Active”. For the same compound, the AUC [4] was 33.8 µM·h, the t1/2 [5] was 12 h and the AUC [6] was 3.41 µM·h. For the same compound, the Drug uptake [7] was “Active”.
